Columns and labels:
Assay in all cases: in vitro antibacterial evaluation, MIC by broth dilution
Assay type in all cases: cell-based
Staphylococcus sp. = conditions: broth dilution, 18 hours at 35° C.
In short: (§1)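 MIC, the lowest antibiotic concentration preventing growth, was read across 64-0.06 μg/mL with 5×10^5 CFU/mL inoculum. Method followed NCCLS M7-A2 broth dilution using Mueller-Hinton II; Gram-positive strains covered recent methicillin-, penicillin- and/or vancomycin-resistant clinical isolates.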

Escherichia coli = conditions: 18 hours at 35° C.
In short: as §1

Streptococcus sp. = conditions: broth dilution, 18 hours at 35° C.
In short: as §1

Enterococcus sp. = conditions: broth dilution, 18 hours at 35° C.
In short: as §1

CC(c1ccccc1)C1NC(=O)CNC(=O)C(CO)NC(=O)C(C(O)C2CNC(=N)N2C2OC(CO)C(O)C(O)C2O)NC(=O)C(C(O)C2CNC(=N)N2)NC(=O)C(Cc2ccc(OC3OC(CO)C(OC4OC5COC(c6cccc(O)c6)OC5C(O)C4O)C(O)C3O)cc2)NC1=O (stereo not drawn) [Example 136, Cyclo[glycyl-β-methylphenylalanyl-O-[4-O-[4,6-O-(3-hydroxybenzylidene)hexopyranosyl]-hexopyranosyl]tyrosyl-3-(2-iminoimidazolidin-4-yl)seryl-3-(3-hexopyranosyl-2-iminoimidazolidin-4-yl)serylseryl]]
8 µg/mL: MIC Staphylococcus aureus (GC 4541) (Staphylococcus sp.) | MIC Staphylococcus aureus (GC 4541) (Staphylococcus sp.; strain GC 4541) | MIC Coagulase Negative Staphylococcus (GC 4547) (Staphylococcus sp.; strain GC 4547) | MIC Coagulase Negative Staphylococcus (GC 4548) (Staphylococcus sp.; strain GC 4548) | MIC Streptococcus agalactiae (GC 4564) (Streptococcus sp.; Streptococcus agalactiae (GC 4564)) | MIC Streptococcus pyogenes (GC 4563) (Streptococcus sp.; Streptococcus pyogenes (GC 4563)) | MIC Streptococcus pyogenes (GC 4563) (Streptococcus sp.; strain GC 4563) | MIC Streptococcus agalactiae (GC 4564) (Streptococcus sp.; strain GC 4564) | MIC Enterococcus faecium (GC 4557) (Enterococcus sp.; Enterococcus faecium (GC 4557)) | MIC Enterococcus faecium (GC 4557) (Enterococcus sp.; strain GC 4557)
1 µg/mL: MIC Streptococcus pneumoniae (GC 1894) (Streptococcus sp.; Streptococcus pneumoniae (GC 1894)) | MIC Streptococcus pneumoniae (GC 1894) (Streptococcus sp.; strain GC 1894)
16 µg/mL: MIC Staphylococcus aureus (ATCC 29213) (Staphylococcus sp.) | MIC Staphylococcus aureus (GC 1131) (Staphylococcus sp.) | MIC Staphylococcus aureus (GC 3051) (Staphylococcus sp.) | MIC Staphylococcus aureus (GC 4542) (Staphylococcus sp.) | MIC Staphylococcus aureus (GC 4544) (Staphylococcus sp.) | MIC Staphylococcus aureus (GC 4545) (Staphylococcus sp.) | MIC Staphylococcus aureus (GC 1131) (Staphylococcus sp.; inoculum 5×10^5 CFU/mL, strain GC 1131) | MIC Staphylococcus aureus (ATCC 29213) (Staphylococcus sp.; strain ATCC 29213) | MIC Staphylococcus aureus (GC 3051) (Staphylococcus sp.; strain GC 3051) | MIC Staphylococcus aureus (GC 4542) (Staphylococcus sp.; strain GC 4542) | MIC Staphylococcus aureus-SMITH (GC 4543) (Staphylococcus sp.; strain GC 4543) | MIC Staphylococcus aureus (GC 4544) (Staphylococcus sp.; strain GC 4544) | MIC Staphylococcus aureus (GC 4545) (Staphylococcus sp.; strain GC 4545) | MIC Staphylococcus haemolyticus (GC 4546) (Staphylococcus sp.; strain GC 4546) | MIC Staphylococcus aureus-SMITH (GC 4543) (Staphylococcus sp.; strain SMITH GC 4543)
32 µg/mL: MIC Staphylococcus aureus (GC 3053) (Staphylococcus sp.) | MIC Staphylococcus aureus (GC 3053) (Staphylococcus sp.; strain GC 3053) | MIC Coagulase Negative Staphylococcus (GC 4551) (Staphylococcus sp.; strain GC 4551)
4 µg/mL: MIC Coagulase Negative Staphylococcus (GC 4549) (Staphylococcus sp.; strain GC 4549) | MIC Coagulase Negative Staphylococcus (GC 6257) (Staphylococcus sp.; strain GC 6257) | MIC Escherichia coli (GC 4560) (Escherichia coli; strain GC 4560) | MIC Streptococcus pneumoniae (GC 4565) (Streptococcus sp.; Streptococcus pneumoniae (GC 4565)) | MIC Streptococcus pneumoniae (GC 4565) (Streptococcus sp.; strain GC 4565)
>64 µg/mL: MIC Escherichia coli (ATCC 25922) (Escherichia coli; strain ATCC 25922) | MIC Escherichia coli (GC 4559) (Escherichia coli; strain GC 4559) | MIC Enterococcus faecalis (ATCC 29212) (Enterococcus sp.; Enterococcus faecalis (ATCC 29212)) | MIC Enterococcus faecalis (GC 2691) (Enterococcus sp.; Enterococcus faecalis (GC 2691)) | MIC Enterococcus faecalis (GC 3059) (Enterococcus sp.; Enterococcus faecalis (GC 3059)) | MIC Enterococcus faecalis (GC 4552) (Enterococcus sp.; Enterococcus faecalis (GC 4552)) | MIC Enterococcus faecalis (GC 4553) (Enterococcus sp.; Enterococcus faecalis (GC 4553)) | MIC Enterococcus faecalis (GC 4554) (Enterococcus sp.; Enterococcus faecalis (GC 4554)) | MIC Enterococcus faecium (GC 2243) (Enterococcus sp.; Enterococcus faecium (GC 2243)) | MIC Enterococcus faecalis (ATCC 29212) (Enterococcus sp.; strain ATCC 29212) | MIC Enterococcus faecium (GC 2243) (Enterococcus sp.; strain GC 2243) | MIC Enterococcus faecalis (GC 2691) (Enterococcus sp.; strain GC 2691) | MIC Enterococcus faecalis (GC 3059) (Enterococcus sp.; strain GC 3059) | MIC Enterococcus faecalis (GC 4552) (Enterococcus sp.; strain GC 4552) | MIC Enterococcus faecalis (GC 4553) (Enterococcus sp.; strain GC 4553) | MIC Enterococcus faecalis (GC 4554) (Enterococcus sp.; strain GC 4554)
64 µg/mL: MIC Enterococcus avium (GC 4558) (Enterococcus sp.; Enterococcus avium (GC 4558)) | MIC Enterococcus faecalis (GC 2242) (Enterococcus sp.; Enterococcus faecalis (GC 2242)) | MIC Enterococcus faecalis (GC 6189) (Enterococcus sp.; Enterococcus faecalis (GC 6189)) | MIC Enterococcus faecium (GC 4556) (Enterococcus sp.; Enterococcus faecium (GC 4556)) | MIC Enterococcus faecalis (GC 2242) (Enterococcus sp.; strain GC 2242) | MIC Enterococcus faecium (GC 4556) (Enterococcus sp.; strain GC 4556) | MIC Enterococcus avium (GC 4558) (Enterococcus sp.; strain GC 4558) | MIC Enterococcus faecalis (GC 6189) (Enterococcus sp.; strain GC 6189)
2 µg/mL: MIC Streptococcus pneumoniae (ATCC 6301) (Streptococcus sp.; Streptococcus pneumoniae (ATCC 6301)) | MIC Streptococcus pneumoniae (ATCC 6301) (Streptococcus sp.; strain ATCC 6301)

From patent US6914045B2, “Glycopeptide antibiotics” (Wyeth Holdings Corporation, priority 2001, dated 2005)
